molecular target: T1, HCV polymerase (Hepatitis C virus genotype 1b, UniProt P26663); experiment: HCV polymerase primer/template-directed transcription assay (32P-GTP incorporation, filter binding); assay type: biochemical; details: recombinant HCV polymerase; 30 minutes at 30° C.; concentration giving 50% inhibition of polymerase-directed transcription; read-out: IC50
T1 construct: 2.5 pmoles (0.15 μg) HCV polymerase protein in a final volume of 75 μL
In short: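 IC50s come from triplicate cpm, refit with an enzyme-concentration (30 nM) correction when under 200 nM. Reactions ran 30 min at 30° C in Tris pH 7.2 with MgCl2, 1 μM GTP spiked with α-32P-GTP, biotin-dG12 primer and poly(rC)300 template, with 1% DMSO. Incorporated label was collected on DE filtermats and counted.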

T1 sequence (P26663 2420-3010): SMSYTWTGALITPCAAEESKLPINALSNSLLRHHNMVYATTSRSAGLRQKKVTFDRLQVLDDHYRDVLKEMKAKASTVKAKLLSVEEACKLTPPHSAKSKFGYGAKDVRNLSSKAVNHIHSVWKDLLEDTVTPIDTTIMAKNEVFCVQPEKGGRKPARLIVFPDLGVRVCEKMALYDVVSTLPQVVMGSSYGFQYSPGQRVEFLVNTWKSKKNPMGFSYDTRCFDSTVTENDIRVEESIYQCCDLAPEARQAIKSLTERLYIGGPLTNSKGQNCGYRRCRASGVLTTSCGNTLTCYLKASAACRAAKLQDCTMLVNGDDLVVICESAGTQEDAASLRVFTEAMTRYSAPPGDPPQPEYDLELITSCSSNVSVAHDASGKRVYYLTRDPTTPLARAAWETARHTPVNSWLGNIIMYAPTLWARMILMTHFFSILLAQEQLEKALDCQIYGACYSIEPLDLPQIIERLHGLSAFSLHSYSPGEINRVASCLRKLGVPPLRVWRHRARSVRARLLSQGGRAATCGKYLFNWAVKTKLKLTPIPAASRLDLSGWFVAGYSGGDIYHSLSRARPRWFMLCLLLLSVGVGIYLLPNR

Row | Structure (SMILES) | IC50 [µM]
1 | CC(C)(O)c1ccc(CCC2(C3CCCC3)CC(O)=C(Cc3nc4ncccn4n3)C(=O)O2)cc1F (centres unmarked) [A(220), 6-cyclopentyl-6-{2-[3-fluoro-4-(1-hydroxy-1-methylethyl)phenyl]ethyl}-4-hydroxy-3-([1,2,4]triazolo[1,5-a]pyrimidin-2-ylmethyl)-5,6-dihydro-2H-pyran-2-one] | 0.172
2 | CC(C)(C#N)c1ccc(CCC2(C3CCCC3)CC(O)=C(Cc3cn4cccnc4n3)C(=O)O2)cc1F (centres unmarked) [A(221), 2-(4-{2-[2-cyclopentyl-4-hydroxy-5-(imidazo[1,2-a]pyrimidin-2-ylmethyl)-6-oxo-3,6-dihydro-2H-pyran-2-yl]ethyl}-2-fluorophenyl)-2-methylpropanenitrile] | 0.014
3 | CC(C)(C#N)c1ccc(CCC2(C3CCCC3)CC(O)=C(Cc3cnc4ncccn34)C(=O)O2)cc1F (centres unmarked) [A(222), 2-(4-{2-[2-cyclopentyl-4-hydroxy-5-(imidazo[1,2-a]pyrimidin-3-ylmethyl)-6-oxo-3,6-dihydro-2H-pyran-2-yl]ethyl}-2-fluorophenyl)-2-methylpropanenitrile] | 0.12
4 | Cc1cnc2nc(CC3=C(O)CC(CCc4ccc(O)c(CC(F)(F)F)c4)(C4CCCC4)OC3=O)nn2c1 (centres unmarked) [A(224), 6-cyclopentyl-4-hydroxy-6-{2-[4-hydroxy-3-(2,2,2-trifluoroethyl)phenyl]ethyl}-3-[(6-methyl[1,2,4]triazolo[1,5-a]pyrimidin-2-yl)methyl]-5,6-dihydro-2H-pyran-2-one] | 0.004
5 | Cc1cc(C)n2nc(CC3=C(O)CC(CCc4ccc(O)c(CC(F)(F)F)c4)(C4CCCC4)OC3=O)nc2n1 (centres unmarked) [A(225), 6-cyclopentyl-3-[(5,7-dimethyl[1,2,4]triazolo[1,5-a]pyrimidin-2-yl)methyl]-4-hydroxy-6-{2-[4-hydroxy-3-(2,2,2-trifluoroethyl)phenyl]ethyl}-5,6-dihydro-2H-pyran-2-one] | 0.003
6 | O=C1CC(=O)OC(CCc2ccc(O)c(CC(F)(F)F)c2)(C2CCCC2)C1 (centres unmarked) [A(228), 6-cyclopentyl-6-{2-[4-hydroxy-3-(2,2,2-trifluoroethyl)phenyl]ethyl}dihydro-2H-pyran-2,4(3H)-dione] | 0.47
7 | CCc1cc(CCC2(C3CCCC3)CC(O)=C(Cc3nc4nc(C)ccn4n3)C(=O)O2)ccc1O (centres unmarked) [A(229), 6-cyclopentyl-6-[2-(3-ethyl-4-hydroxyphenyl)ethyl]-4-hydroxy-3-[(5-methyl[1,2,4]triazolo[1,5-a]pyrimidin-2-yl)methyl]-5,6-dihydro-2H-pyran-2-one] | 0.01
8 | CCc1cc(CCC2(C3CCCC3)CC(O)=C(Cc3nc4ncc(Br)cn4n3)C(=O)O2)ccc1O (centres unmarked) [A(230), 3-[(6-bromo[1,2,4]triazolo[1,5-a]pyrimidin-2-yl)methyl]-6-cyclopentyl-6-[2-(3-ethyl-4-hydroxyphenyl)ethyl]-4-hydroxy-5,6-dihydro-2H-pyran-2-one] | 0.011
9 | CCc1cc(CCC2(C3CCCC3)CC(O)=C(Cc3nc4ncc(Cl)cn4n3)C(=O)O2)cc(CC)c1O (centres unmarked) [A(231), 3-[(6-chloro[1,2,4]triazolo[1,5-a]pyrimidin-2-yl)methyl]-6-cyclopentyl-6-[2-(3,5-diethyl-4-hydroxyphenyl)ethyl]-4-hydroxy-5,6-dihydro-2H-pyran-2-one] | 0.006
10 | CCc1cc(CCC2(C3CCCC3)CC(O)=C(Cc3nc4nc(C)cc(C)n4n3)C(=O)O2)cc(CC)c1O (centres unmarked) [A(232), 6-cyclopentyl-6-[2-(3,5-diethyl-4-hydroxyphenyl)ethyl]-3-[(5,7-dimethyl[1,2,4]triazolo[1,5-a]pyrimidin-2-yl)methyl]-4-hydroxy-5,6-dihydro-2H-pyran-2-one] | 0.004
11 | CCc1cc(CCC2(C3CCCC3)CC(O)=C(Cc3nc4ncc(C)cn4n3)C(=O)O2)cc(CC)c1O (centres unmarked) [A(233), 6-cyclopentyl-6-[2-(3,5-diethyl-4-hydroxyphenyl)ethyl]-4-hydroxy-3-[(6-methyl[1,2,4]triazolo[1,5-a]pyrimidin-2-yl)methyl]-5,6-dihydro-2H-pyran-2-one] | 0.011
12 | CCc1cc(CCC2(C3CCCC3)CC(O)=C(Cc3nc4ncccn4n3)C(=O)O2)cc(CC)c1O (centres unmarked) [A(234), 6-cyclopentyl-6-[2-(3,5-diethyl-4-hydroxyphenyl)ethyl]-4-hydroxy-3-([1,2,4]triazolo[1,5-a]pyrimidin-2-ylmethyl)-5,6-dihydro-2H-pyran-2-one] | 0.011
13 | CCc1cc(CCC2(C3CCCC3)CC(=O)CC(=O)O2)cc(CC)c1O (centres unmarked) [A(235), 6-cyclopentyl-6-[2-(3,5-diethyl-4-hydroxyphenyl)ethyl]dihydro-2H-pyran-2,4(3H)-dione] | 0.89
14 | Cc1cc(C)n2nc(CC3=C(O)CC(CCc4ccc(C5(C#N)CCC5)c(F)c4)(C4CCCC4)OC3=O)nc2n1 (centres unmarked) [A(236), 1-(4-{2-[2-Cyclopentyl-5-(5,7-dimethyl-[1,2,4]triazolo[1,5-a]pyrimidin-2-ylmethyl)-4-hydroxy-6-oxo-3,6-dihydro-2H-pyran-2-yl]-ethyl}-2-fluoro-phenyl)-cyclobutanecarbonitrile] | 0.003
15 | N#CC1(c2ccc(CCC3(C4CCCC4)CC(=O)CC(=O)O3)cc2F)CCC1 (centres unmarked) [A(237), 1-{4-[2-(2-Cyclopentyl-4,6-dioxo-tetrahydro-pyran-2-yl)-ethyl]-2-fluoro-phenyl}-cyclobutanecarbonitrile] | 1
16 | N#CC1(c2ccc(CCC3(C4CCCC4)CC(O)=C(Cc4nc5ncccn5n4)C(=O)O3)cc2F)CCC1 (centres unmarked) [A(238), 1-{4-[2-(2-Cyclopentyl-4-hydroxy-6-oxo-5-[1,2,4]triazolo[1,5-a]pyrimidin-2-ylmethyl-3,6-dihydro-2H-pyran-2-yl)-ethyl]-2-fluoro-phenyl}-cyclobutanecarbonitrile] | 0.01
17 | Cc1cnc2nc(CC3=C(O)CC(CCc4ccc(C5(C#N)CCC5)c(F)c4)(C4CCCC4)OC3=O)nn2c1 (centres unmarked) [A(239), 1-(4-{2-[2-Cyclopentyl-4-hydroxy-5-(6-methyl-[1,2,4]triazolo[1,5-a]pyrimidin-2-ylmethyl)-6-oxo-3,6-dihydro-2H-pyran-2-yl]-ethyl}-2-fluoro-phenyl)-cyclobutanecarbonitrile] | 0.003
18 | Cc1cnc2nc(CC3=C(O)CC(CCc4ccc(C(C)C#N)c(F)c4)(C4CCCC4)OC3=O)nn2c1 (centres unmarked) [A(240), 2-(4-{2-[2-Cyclopentyl-4-hydroxy-5-(6-methyl-[1,2,4]triazolo[1,5-a]pyrimidin-2-ylmethyl)-6-oxo-3,6-dihydro-2H-pyran-2-yl]-ethyl}-2-fluoro-phenyl)-propionitrile] | 0.009
19 | CC(C#N)c1ccc(CCC2(C3CCCC3)CC(=O)CC(=O)O2)cc1F (centres unmarked) [A(241), 2-{4-[2-(2-Cyclopentyl-4,6-dioxo-tetrahydro-pyran-2-yl)-ethyl]-2-fluoro-phenyl}-propionitrile] | 0.8
20 | CCc1cnc2nc(CC3=C(O)CC(CCc4cc(F)c(C(C)(C)C#N)c(F)c4)(C4CCCC4)OC3=O)nn2c1 (centres unmarked) [A(252), 2-(4-{2-[2-Cyclopentyl-5-(6-ethyl-[1,2,4]triazolo[1,5-a]pyrimidin-2-ylmethyl)-4-hydroxy-6-oxo-3,6-dihydro-2H-pyran-2-yl]-ethyl}-2,6-difluoro-phenyl)-2-methyl-propionitrile] | 0.01
21 | Cc1ccn2nc(CC3=C(O)CC(CCc4cc(F)c(C(C)(C)C#N)c(F)c4)(C4CCCC4)OC3=O)nc2n1 (centres unmarked) [A(253), 2-(4-{2-[2-Cyclopentyl-4-hydroxy-5-(5-methyl-[1,2,4]triazolo[1,5-a]pyrimidin-2-ylmethyl)-6-oxo-3,6-dihydro-2H-pyran-2-yl]-ethyl}-2,6-difluoro-phenyl)-2-methyl-propionitrile] | 0.006
22 | Cc1cnc2nc(CC3=C(O)CC(CCc4cc(F)c(C5(C#N)CC5)c(F)c4)(C4CCCC4)OC3=O)nn2c1 (centres unmarked) [A(254)] | 0.012
23 | N#CC1(c2c(F)cc(CCC3(C4CCCC4)CC(=O)CC(=O)O3)cc2F)CC1 (centres unmarked) [A(255), 1-{4-[2-(2-Cyclopentyl-4,6-dioxo-tetrahydro-pyran-2-yl)-ethyl]-2,6-difluoro-phenyl}-cyclopropanecarbonitrile] | 1.9
24 | COc1cc(C(C)(C)C#N)c(F)cc1CCC1(C2CCCC2)CC(O)=C(Cc2nc3ncc(C)cn3n2)C(=O)O1 (centres unmarked) [A(261), 2-(4-{2-[2-Cyclopentyl-4-hydroxy-5-(6-methyl-[1,2,4]triazolo[1,5-a]pyrimidin-2-ylmethyl)-6-oxo-3,6-dihydro-2H-pyran-2-yl]-ethyl}-2-fluoro-5-methoxy-phenyl)-2-methyl-propionitrile] | 0.004
25 | CCNC(=O)C(C)(C)c1ccc(CCC2(C3CCCC3)CC(O)=C(Cc3nc4ncc(C)cn4n3)C(=O)O2)cc1F (centres unmarked) [A(268), 2-(4-{2-[2-Cyclopentyl-4-hydroxy-5-(6-methyl-[1,2,4]triazolo[1,5-a]pyrimidin-2-ylmethyl)-6-oxo-3,6-dihydro-2H-pyran-2-yl]-ethyl}-2-fluoro-phenyl)-N-ethyl-isobutyramide] | 0.68
26 | Cc1cnc2nc(CC3=C(O)CC(CCc4ccc(C(C)(C)CO)c(F)c4)(C4CCCC4)OC3=O)nn2c1 (centres unmarked) [A(269), 6-Cyclopentyl-6-{2-[3-fluoro-4-(2-hydroxy-1,1-dimethyl-ethyl)-phenyl]-ethyl}-4-hydroxy-3-(6-methyl-[1,2,4]triazolo[1,5-a]pyrimidin-2-ylmethyl)-5,6-dihydro-pyran-2-one] | 0.026
27 | COC(=O)C(C)(C)c1ccc(CCC2(C3CCCC3)CC(O)=C(Cc3nc4ncc(C)cn4n3)C(=O)O2)cc1F (centres unmarked) [A(270), 2-(4-{2-[2-Cyclopentyl-4-hydroxy-5-(6-methyl-[1,2,4]triazolo[1,5-a]pyrimidin-2-ylmethyl)-6-oxo-3,6-dihydro-2H-pyran-2-yl]-ethyl}-2-fluoro-phenyl)-2-methyl-propionic acid methyl ester] | 0.037
28 | COc1ccc(CCC2(C3CCCC3)CC(O)=C(Cc3nc4nc(C)cc(C)n4n3)C(=O)O2)cc1F (centres unmarked) [B(01)] | 0.015
29 | CCOc1ccc(CCC2(C3CCCC3)CC(O)=C(Cc3nc4nc(C)cc(C)n4n3)C(=O)O2)cc1F (centres unmarked) [B(02), 6-Cyclopentyl-3-(5,7-dimethyl-[1,2,4]triazolo[1,5-a]pyrimidin-2-ylmethyl)-6-[2-(4-ethoxy-3-fluoro-phenyl)-ethyl]-4-hydroxy-5,6-dihydro-pyran-2-one] | 0.027
